{"source": "PubChem BioAssay (NCI)", "experiment_in_all_cases": "NCI tumour cell line growth inhibition, 48 h", "key": {"A549 NSCLC": {"tested_on": "A549 NSCLC"}, "CAKI-1 renal": {"tested_on": "CAKI-1 renal"}, "CCRF-CEM leukemia": {"tested_on": "CCRF-CEM leukemia"}, "EKVX NSCLC": {"tested_on": "EKVX NSCLC"}, "HOP-62 NSCLC": {"tested_on": "HOP-62 NSCLC"}, "HT29 colon": {"tested_on": "HT29 colon"}, "M14 melanoma": {"tested_on": "M14 melanoma"}, "MDA-MB-435": {"tested_on": "MDA-MB-435"}, "OVCAR-5 ovarian": {"tested_on": "OVCAR-5 ovarian"}, "RXF 393 renal": {"tested_on": "RXF 393 renal"}, "SF-268 CNS": {"tested_on": "SF-268 CNS"}, "SF-295 CNS": {"tested_on": "SF-295 CNS"}, "SF-539 CNS": {"tested_on": "SF-539 CNS"}, "SK-MEL-28 melanoma": {"tested_on": "SK-MEL-28 melanoma"}, "SR leukemia": {"tested_on": "SR leukemia"}, "SW-620 colon": {"tested_on": "SW-620 colon"}, "T-47D breast": {"tested_on": "T-47D breast"}, "TK-10 renal": {"tested_on": "TK-10 renal"}, "UACC-257 melanoma": {"tested_on": "UACC-257 melanoma"}, "UACC-62 melanoma": {"tested_on": "UACC-62 melanoma"}}, "note": "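In this assay, cells in 96-well plates receive the compound at five concentrations for 48 hours. Endpoints are linearly interpolated between the surrounding concentrations. The concentration for full growth arrest is given as TGI.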 Where a SMILES comes first, the peptide text is derived from it. [ ]: non-standard residue; d: D form. The star is where a group is joined. Phe(4-NO2) = N[CH](Cc1ccc([N+](=O)[O-])cc1)C(=O)O; Boc = CC(C)(C)OC(=O)*", "data": [{"smiles": "Nc1c(Br)cc(-c2nc3ccccc3s2)cc1Br", "values": [{"measurement": "TGI", "setting": "A549 NSCLC", "result": "> 100", "unit": "µM"}, {"measurement": "TGI", "setting": "CAKI-1 renal", "result": "> 100", "unit": "µM"}, {"measurement": "TGI", "setting": "CCRF-CEM leukemia", "result": "> 100", "unit": "µM"}, {"measurement": "TGI", "setting": "EKVX NSCLC", "result": "> 100", "unit": "µM"}, {"measurement": "TGI", "setting": "HOP-62 NSCLC", "result": "> 100", "unit": "µM"}, {"measurement": "TGI", "setting": "HT29 colon", "result": "> 100", "unit": "µM"}, {"measurement": "TGI", "setting": "M14 melanoma", "result": "> 100", "unit": "µM"}, {"measurement": "TGI", "setting": "MDA-MB-435", "result": "> 100", "unit": "µM"}, {"measurement": "TGI", "setting": "OVCAR-5 ovarian", "result": "> 100", "unit": "µM"}, {"measurement": "TGI", "setting": "RXF 393 renal", "result": "> 100", "unit": "µM"}, {"measurement": "TGI", "setting": "SF-268 CNS", "result": "> 100", "unit": "µM"}, {"measurement": "TGI", "setting": "SF-295 CNS", "result": "> 100", "unit": "µM"}, {"measurement": "TGI", "setting": "SF-539 CNS", "result": "> 100", "unit": "µM"}, {"measurement": "TGI", "setting": "SK-MEL-28 melanoma", "result": "> 100", "unit": "µM"}, {"measurement": "TGI", "setting": "SR leukemia", "result": "> 100", "unit": "µM"}, {"measurement": "TGI", "setting": "SW-620 colon", "result": "> 100", "unit": "µM"}, {"measurement": "TGI", "setting": "T-47D breast", "result": "> 100", "unit": "µM"}, {"measurement": "TGI", "setting": "TK-10 renal", "result": "> 100", "unit": "µM"}, {"measurement": "TGI", "setting": "UACC-257 melanoma", "result": "> 100", "unit": "µM"}, {"measurement": "TGI", "setting": "UACC-62 melanoma", "result": "> 100", "unit": "µM"}]}, {"smiles": "Cc1ccc(S(=O)(=O)N/N=C2\\CC(C)OC3=C2CCCCCC3)cc1", "note": "(stereo not given)", "values": [{"measurement": "TGI", "setting": "A549 NSCLC", "result": 34.4, "unit": "µM"}, {"measurement": "TGI", "setting": "CAKI-1 renal", "result": 44.6, "unit": "µM"}, {"measurement": "TGI", "setting": "CCRF-CEM leukemia", "result": "> 100", "unit": "µM"}, {"measurement": "TGI", "setting": "EKVX NSCLC", "result": 30.4, "unit": "µM"}, {"measurement": "TGI", "setting": "HOP-62 NSCLC", "result": 35.1, "unit": "µM"}, {"measurement": "TGI", "setting": "HT29 colon", "result": 34.9, "unit": "µM"}, {"measurement": "TGI", "setting": "M14 melanoma", "result": 36.2, "unit": "µM"}, {"measurement": "TGI", "setting": "MDA-MB-435", "result": 34.6, "unit": "µM"}, {"measurement": "TGI", "setting": "OVCAR-5 ovarian", "result": 37.8, "unit": "µM"}, {"measurement": "TGI", "setting": "RXF 393 renal", "result": 32.4, "unit": "µM"}, {"measurement": "TGI", "setting": "SF-268 CNS", "result": 38.4, "unit": "µM"}, {"measurement": "TGI", "setting": "SF-295 CNS", "result": 35.9, "unit": "µM"}, {"measurement": "TGI", "setting": "SF-539 CNS", "result": 38.9, "unit": "µM"}, {"measurement": "TGI", "setting": "SK-MEL-28 melanoma", "result": 39.3, "unit": "µM"}, {"measurement": "TGI", "setting": "SR leukemia", "result": 60.4, "unit": "µM"}, {"measurement": "TGI", "setting": "SW-620 colon", "result": 36.4, "unit": "µM"}, {"measurement": "TGI", "setting": "T-47D breast", "result": "> 100", "unit": "µM"}, {"measurement": "TGI", "setting": "TK-10 renal", "result": 37.2, "unit": "µM"}, {"measurement": "TGI", "setting": "UACC-257 melanoma", "result": 36.6, "unit": "µM"}, {"measurement": "TGI", "setting": "UACC-62 melanoma", "result": 30.6, "unit": "µM"}]}, {"smiles": "NCCNCCCNC(=O)c1cc(-c2ccccc2)nc2ccccc12", "values": [{"measurement": "TGI", "setting": "A549 NSCLC", "result": "> 100", "unit": "µM"}, {"measurement": "TGI", "setting": "CAKI-1 renal", "result": "> 100", "unit": "µM"}, {"measurement": "TGI", "setting": "CCRF-CEM leukemia", "result": 51.2, "unit": "µM"}, {"measurement": "TGI", "setting": "EKVX NSCLC", "result": "> 100", "unit": "µM"}, {"measurement": "TGI", "setting": "HOP-62 NSCLC", "result": "> 100", "unit": "µM"}, {"measurement": "TGI", "setting": "HT29 colon", "result": "> 100", "unit": "µM"}, {"measurement": "TGI", "setting": "M14 melanoma", "result": 28.3, "unit": "µM"}, {"measurement": "TGI", "setting": "MDA-MB-435", "result": 43.5, "unit": "µM"}, {"measurement": "TGI", "setting": "OVCAR-5 ovarian", "result": "> 100", "unit": "µM"}, {"measurement": "TGI", "setting": "RXF 393 renal", "result": "> 100", "unit": "µM"}, {"measurement": "TGI", "setting": "SF-268 CNS", "result": "> 100", "unit": "µM"}, {"measurement": "TGI", "setting": "SF-295 CNS", "result": "> 100", "unit": "µM"}, {"measurement": "TGI", "setting": "SF-539 CNS", "result": 36.7, "unit": "µM"}, {"measurement": "TGI", "setting": "SK-MEL-28 melanoma", "result": 33, "unit": "µM"}, {"measurement": "TGI", "setting": "SR leukemia", "result": 82.3, "unit": "µM"}, {"measurement": "TGI", "setting": "SW-620 colon", "result": "> 100", "unit": "µM"}, {"measurement": "TGI", "setting": "T-47D breast", "result": "> 100", "unit": "µM"}, {"measurement": "TGI", "setting": "TK-10 renal", "result": "> 100", "unit": "µM"}, {"measurement": "TGI", "setting": "UACC-257 melanoma", "result": 51.5, "unit": "µM"}, {"measurement": "TGI", "setting": "UACC-62 melanoma", "result": 46.3, "unit": "µM"}]}, {"smiles": "COC(=O)CCC(NC(=O)OC(C)(C)C)C(=O)NC(Cc1ccc([N+](=O)[O-])cc1)C(=O)NC(CCC(=O)OC)C(=O)OC", "note": "(stereo not given) (Boc-Glu(OMe)-[Phe(4-NO2)]-Glu(OMe)-OMe; configuration not given here)", "values": [{"measurement": "TGI", "setting": "A549 NSCLC", "result": "> 100", "unit": "µM"}, {"measurement": "TGI", "setting": "CAKI-1 renal", "result": "> 100", "unit": "µM"}, {"measurement": "TGI", "setting": "CCRF-CEM leukemia", "result": 36.8, "unit": "µM"}, {"measurement": "TGI", "setting": "EKVX NSCLC", "result": "> 100", "unit": "µM"}, {"measurement": "TGI", "setting": "HOP-62 NSCLC", "result": "> 100", "unit": "µM"}, {"measurement": "TGI", "setting": "HT29 colon", "result": "> 100", "unit": "µM"}, {"measurement": "TGI", "setting": "M14 melanoma", "result": "> 100", "unit": "µM"}, {"measurement": "TGI", "setting": "MDA-MB-435", "result": "> 100", "unit": "µM"}, {"measurement": "TGI", "setting": "OVCAR-5 ovarian", "result": "> 100", "unit": "µM"}, {"measurement": "TGI", "setting": "RXF 393 renal", "result": "> 100", "unit": "µM"}, {"measurement": "TGI", "setting": "SF-268 CNS", "result": "> 100", "unit": "µM"}, {"measurement": "TGI", "setting": "SF-295 CNS", "result": "> 100", "unit": "µM"}, {"measurement": "TGI", "setting": "SF-539 CNS", "result": "> 100", "unit": "µM"}, {"measurement": "TGI", "setting": "SK-MEL-28 melanoma", "result": "> 100", "unit": "µM"}, {"measurement": "TGI", "setting": "SR leukemia", "result": 51.6, "unit": "µM"}, {"measurement": "TGI", "setting": "SW-620 colon", "result": "> 100", "unit": "µM"}, {"measurement": "TGI", "setting": "T-47D breast", "result": "> 100", "unit": "µM"}, {"measurement": "TGI", "setting": "TK-10 renal", "result": "> 100", "unit": "µM"}, {"measurement": "TGI", "setting": "UACC-257 melanoma", "result": 25.3, "unit": "µM"}, {"measurement": "TGI", "setting": "UACC-62 melanoma", "result": "> 100", "unit": "µM"}]}]}
